Test results taken from patent US8207177B2, “Inhibitors of E1 activating enzymes” (Millennium Pharmaceuticals, Inc., priority 2006, dated 2012).

Target: T1, recombinant human NAE enzyme (Homo sapiens, UniProt Q8TBC4)
T1 construct: His (N); made in house; host or cells: Sf9 insect cells (baculovirus, Bac-to-Bac), purified on Ni-NTA
T1 sequence (Q8TBC4 1-463): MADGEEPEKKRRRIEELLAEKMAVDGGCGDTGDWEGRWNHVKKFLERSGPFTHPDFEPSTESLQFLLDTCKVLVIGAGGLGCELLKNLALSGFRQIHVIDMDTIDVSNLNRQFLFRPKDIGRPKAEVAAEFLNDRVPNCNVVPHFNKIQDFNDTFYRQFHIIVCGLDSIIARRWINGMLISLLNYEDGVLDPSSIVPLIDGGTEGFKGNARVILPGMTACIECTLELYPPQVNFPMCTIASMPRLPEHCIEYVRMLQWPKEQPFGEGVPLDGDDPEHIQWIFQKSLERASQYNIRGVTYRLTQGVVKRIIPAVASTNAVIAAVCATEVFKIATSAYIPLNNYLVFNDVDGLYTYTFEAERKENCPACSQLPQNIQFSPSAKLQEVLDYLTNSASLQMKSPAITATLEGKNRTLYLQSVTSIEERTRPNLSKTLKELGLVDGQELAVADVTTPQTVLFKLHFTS
T1 sequence (Q13564 1-534 partner): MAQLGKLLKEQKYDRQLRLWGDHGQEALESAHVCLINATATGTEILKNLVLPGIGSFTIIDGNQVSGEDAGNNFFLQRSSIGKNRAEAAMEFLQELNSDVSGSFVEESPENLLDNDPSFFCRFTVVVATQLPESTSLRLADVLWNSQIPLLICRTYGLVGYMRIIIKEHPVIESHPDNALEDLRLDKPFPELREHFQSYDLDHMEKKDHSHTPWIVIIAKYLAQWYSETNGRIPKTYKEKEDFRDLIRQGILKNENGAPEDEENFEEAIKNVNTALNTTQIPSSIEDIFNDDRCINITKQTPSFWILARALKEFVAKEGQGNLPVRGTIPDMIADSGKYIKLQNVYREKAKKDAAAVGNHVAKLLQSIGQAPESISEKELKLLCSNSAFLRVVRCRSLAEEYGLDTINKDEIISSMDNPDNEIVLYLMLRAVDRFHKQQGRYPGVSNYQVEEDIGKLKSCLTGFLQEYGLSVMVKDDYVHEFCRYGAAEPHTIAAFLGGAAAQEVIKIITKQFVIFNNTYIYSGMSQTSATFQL
Assay: Nedd8-Activating Enzyme (NAE) HTRF Assay
Assay type: biochemical
Conditions: threshold statement: less than or equal to 100 nM; 20 μM ATP, 90 minutes at 24° C.
In short: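 Sf9-expressed NAEα/His-NAEβ complex (0.28 nM) with 0.075 μM Nedd8-Flag, 0.01 μM Ubc12-GST, 20 μM ATP in 50 mM HEPES pH 7.5, 5 mM MgCl2, 250 μM GSH, 0.05% BSA; 90 min at 24 °C. EDTA stop, then Eu-cryptate anti-FLAG/XL-APC anti-GST detection for 3 h at 24 °C, HTRF read-out.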

For COc1ccccc1CNc1ncnc2c1ccn2[C@@H]1C[C@@H](COS(N)(=O)=O)[C@@H](O)C1 [Compound I-43, ((1S,2S,4R)-2-hydroxy-4-{4-[(2-methoxybenzyl)amino]-7H-pyrrolo[2,3-d]-pyrimidin-7-yl)cyclopentyl)methyl sulfamate], the IC50 was at most 100 nM.
For NS(=O)(=O)OC[C@@H]1C[C@@H](n2ccc3c(NCc4ccc(Cl)cc4)ncnc32)C[C@@H]1O [Compound I-45, ((1S,2S,4R)-4-{4-[(4-chlorobenzyl)amino]-7H-pyrrolo[2,3-d]pyrimidin-7-yl}-2-hydroxycyclopentyl)methyl sulfamate], the IC50 was at most 100 nM.
COC[C@H]1Cc2ccccc2C1Nc1ncnc2c1ccn2[C@@H]1C[C@@H](COS(N)(=O)=O)[C@@H](O)C1 (stereo in doubt) [Compound I-80, [(1S,2S,4R)-2-hydroxy-4-(4-{[(1S,2S)-2-(methoxymethyl)-2,3-dihydro-1H-inden-1-yl]amino}-7H-pyrrolo[2,3-d]pyrimidin-7-yl)cyclopentyl]methyl sulfamate] was tested, and the IC50 was at most 100 nM.
For NS(=O)(=O)OC[C@@H]1C[C@@H](n2ccc3c(N[C@H]4CCc5cccc(F)c54)ncnc32)C[C@@H]1O [Compound I-66, [(1S,2S,4R)-4-(4-{[(1S)-7-fluoro-2,3-dihydro-1H-inden-1-yl]amino}-7H-pyrrolo[2,3-d]pyrimidin-7-yl)-2-hydroxycyclopentyl]methyl sulfamate], the IC50 was at most 100 nM.
Compound CO[C@H]1Cc2ccccc2[C@H]1Nc1ncnc2c1ccn2[C@@H]1C[C@@H](COS(N)(=O)=O)[C@@H](O)C1 [Compound I-52, [(1S,2S,4R)-2-hydroxy-4-(4-{[(1R,2S)-2-methoxy-2,3-dihydro-1H-inden-1-yl]-amino}-7H-pyrrolo[2,3-d]pyrimidin-7-yl)cyclopentyl]methyl sulfamate] has an IC50 of at most 100 nM.
NS(=O)(=O)OC[C@@H]1C[C@@H](n2ccc3c(N[C@H]4CCc5cc(F)ccc54)ncnc32)C[C@@H]1O [Compound I-36, [(1S,2S,4R)-4-(4-{[(1S)-5-fluoro-2,3-dihydro-1H-inden-1-yl]amino}-7H-pyrrolo-[2,3-d]pyrimidin-7-yl)-2-hydroxycyclopentyl]methyl sulfamate] showed an IC50 of at most 100 nM.
In the case of CC[C@H]1Cc2ccccc2[C@H]1Nc1ncnc2c1ccn2[C@@H]1C[C@@H](COS(N)(=O)=O)[C@@H](O)C1 [Compound I-84, [(1S,2S,4R)-4-(4-{[(1S,2S)-2-ethyl-2,3-dihydro-1H-inden-1-yl]amino}-7H-pyrrolo[2,3-d]pyrimidin-7-yl)-2-hydroxycyclopentyl]methyl sulfamate], the IC50 is reported as at most 100 nM.
In the case of Nc1ncnc2c1ccn2[C@@H]1C[C@@H](COS(N)(=O)=O)[C@@H](O)C1 [Compound I-18, [(1S,2S,4R)-4-(4-amino-7H-pyrrolo[2,3-d]pyrimidin-7-yl)-2-hydroxycyclopentyl]methyl sulfamate], the IC50 is reported as at most 100 nM.
CC1(C)C[C@H](Nc2ncnc3c2ccn3[C@@H]2C[C@@H](COS(N)(=O)=O)[C@@H](O)C2)c2ccccc21 (single isomer, unassigned) [Compound I-14] gave an IC50 of at most 100 nM.
Compound NS(=O)(=O)OC[C@@H]1C[C@@H](n2ccc3c(N[C@H]4CCOc5ccccc54)ncnc32)C[C@@H]1O [Compound I-12, ((1S,2S,4R)-4-{4-[(4S)-3,4-dihydro-2H-chromen-4-ylamino]-7H-pyrrolo[2,3-d]-pyrimidin-7-yl}-2-hydroxycyclopentyl)methyl sulfamate] has an IC50 of at most 100 nM.
NS(=O)(=O)OC[C@@H]1C[C@@H](n2ccc3c(NCc4ccccc4C(F)(F)F)ncnc32)C[C@@H]1O [Compound I-47, [(1S,2S,4R)-2-hydroxy-4-(4-{[2-(trifluoromethyl)benzyl]amino}-7H-pyrrolo-[2,3-d]pyrimidin-7-yl)cyclopentyl]methyl sulfamate] showed an IC50 of at most 100 nM.
